Results as given in US9609868B2, “Alkoximino-substituted anthranilic acid diamides as pesticides” (BAYER CROPSCIENCE AKTIENGESELLSCHAFT, priority 2013, dated 2017).

Experiments:
Spodoptera frugiperda = Spodoptera frugiperda - spray test (SPODFR); format: in vivo; conditions: application rate 100 g/ha, maize leaf disks
In short: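 Maize leaf disks sprayed with compound in acetone/DMF with alkylaryl polyglycol ether emulsifier, diluted in water to test concentration, then infested with armyworm caterpillars once dry. Efficacy given as % caterpillars killed (100% all, 0% none) after the chosen period.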

Myzus persicae = Myzus persicae - spray test (MYZUPE); format: in vivo; conditions: application rate 100 g/ha, Chinese cabbage leaf disks
In short: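 Chinese cabbage leaf disks carrying all stages of green peach aphid were sprayed with compound in acetone/DMF with emulsifier, diluted in water. After the chosen period, efficacy was scored as % aphids killed.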

Phaedon cochleariae = Phaedon cochleariae - spray test (PHAECO); format: in vivo; conditions: application rate 100 g/ha, Chinese cabbage leaf disks
In short: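 Active compound in acetone/dimethylformamide with alkylaryl polyglycol ether emulsifier was diluted with emulsifier-containing water to the test concentration and sprayed. After the set period, efficacy was scored as % larvae killed (100% = all beetle larvae dead, 0% = none).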

Tetranychus urticae = Tetranychus urticae - spray test, OP-resistant (TETRUR); format: in vivo; conditions: application rate 100 g/ha, bean leaf disks
Experimental: Tetranychus urticae—Spray Test, OP-Resistant (TETRUR)
Solvent: 78.0 parts by weight of acetone • • 1.5 parts by weight of dimethylformamide
Emulsifier: 0.5 parts by weight of alkylaryl polyglycol ether
To produce a suitable active compound preparation, 1 part by weight of active compound is mixed with the stated amounts of solvent and emulsifier, and the concentrate is diluted with emulsifier-containing water to the desired concentration.
Disks of bean leaves (Phaseolus vulgaris) infested with all stages of the greenhouse red spider mite (Tetranychus urticae) are sprayed with an active compound preparation of the desired concentration.
After the desired period of time, the efficacy in % is determined. 100% means that all the spider mites have been killed; 0% means that none of the spider mites have been killed.

[1] = log P by HPLC on reversed-phase column (C18), EEC directive 79/831 Annex V.A8; format: physicochemical; conditions: for log p: HPLC reversed-phase C18, 43° C., data refer to the E isomer
Experimental: The log P values reported in the tables and Preparation Examples above were determined in accordance with EEC directive 79/831 Annex V.A8 by HPLC (High Performance Liquid Chromatography) using a reversed-phase column (C18). Temperature 43° C. The calibration is effected with unbranched alkan-2-ones (having 3 to 16 carbon atoms), for which the log P values are known.

Lucilia cuprina = Lucilia cuprina test (LUCICU); format: in vivo; conditions: application rate 100 ppm
Experimental: Lucilia cuprina-Test (LUCICU)
(§1) Solvent: dimethyl sulfoxide
(§2) To produce a suitable preparation of active compound, 10 mg of active compound are mixed with 0.5 ml of dimethyl sulfoxide, and the concentrate is diluted with water to the desired concentration.
About 20 L1 larvae of the Australian sheep blowfly (Lucilia cuprina) are transferred into a test vessel containing minced horsemeat and the active compound preparation of the desired concentration.
After the desired time, the kill in % is determined. 100% means that all the larvae have been killed; 0% means that no larvae have been killed.

Boophilus microplus = Boophilus microplus - injection test (BOOPMI Inj); format: in vivo; conditions: application rate 20 μg/animal, injection into engorged adult female cattle ticks
Experimental: Boophilus microplus—Injection Test (BOOPMI Inj)
as §1
To produce a suitable preparation of active compound, 10 mg of active compound are mixed with 0.5 ml of solvent and the concentrate is diluted with solvent to the desired concentration.
1 μl of the active compound solution is injected into the abdomen of 5 engorged adult female cattle ticks (Boophilus microplus). The animals are transferred into dishes and kept in a climate-controlled room.
The activity is assessed after the desired time by laying of fertile eggs. Eggs which are not visibly fertile are stored in a climate-controlled cabinet until the larvae hatch after about 42 days. An efficacy of 100% means that none of the ticks has laid any fertile eggs; 0% means that all the eggs are fertile.

Musca domestica = Musca domestica test (MUSCDO); format: in vivo; conditions: application rate 20 ppm
Experimental: Musca domestica-Test (MUSCDO)
as §1, §2
Vessels containing a sponge treated with sugar solution and the active compound preparation of the desired concentration are populated with 10 adult houseflies (Musca domestica).
After the desired time, the kill in % is determined. 100% means that all of the flies have been killed; 0% means that none of the flies have been killed.

| SMILES | efficacy (caterpillars killed) (Spodoptera frugiperda) [%] | efficacy (aphids killed) (Myzus persicae) [%] | efficacy (beetle larvae killed) (Phaedon cochleariae) [%] | efficacy (spider mites killed) (Tetranychus urticae) [%] | log p ([1]; Table A) | log p ([1]; Table B) | efficacy (kill of L1 larvae) (Lucilia cuprina) [%] | efficacy (no fertile eggs laid) (Boophilus microplus) [%] | chromatographic logP ([1]; log P) | chromatographic logP ([1]; log p) | efficacy (kill of adult houseflies) (Musca domestica) [%] | log p ([1]; Table C) |
| --- | --- | --- | --- | --- | --- | --- | --- | --- | --- | --- | --- | --- |
| CON=Cc1cc(C)c(NC(=O)c2cc(OC)nn2-c2ncccc2Cl)c(C(=O)NN(C)C(=O)OC)c1 (mixture of isomers) [A-43] | 100 | 100 | 100 | 100 | 2.19 | – | – | – | – | – | – | – |
| CON=Cc1cc(C)c(NC(=O)c2cc(C(F)(F)F)nn2-c2ncccc2Cl)c(C(=O)NN(C)C(=O)OC)c1 (mixture of isomers) [A-46] | 100 | 90 | 100 | 100 | 2.85 | – | – | – | – | – | – | – |
| CON=Cc1cc(C)c(NC(=O)c2cc(Br)nn2-c2ncccc2Cl)c(C(=O)NC2(C)CSC2)c1 (mixture of isomers) [B-01] | 100 | 90 | 100 | 100 | – | 3.22 | – | – | – | – | – | – |
| CON=Cc1cc(C)c(NC(=O)c2cc(C(F)(F)F)nn2-c2ncccc2Cl)c(C(=O)NC2COC2)c1 (mixture of isomers) [B-02] | 100 | 100 | 100 | 90 | – | 2.78 | 100 | 100 | – | – | – | – |
| CO/N=C/c1cc(C)c(NC(=O)c2cc(OCC(F)F)nn2-c2ncccc2Cl)c(C(=O)NN(C)C(=O)OC)c1 [A-01, Methyl 2-{2-({[1-(3-chloropyridin-2-yl)-3-(2,2-difluoroethoxy)-1H-pyrazol-5-yl]carbonyl}amino)-5-[(E)-(methoxyimino)methyl]-3-methylbenzoyl}-1-methylhydrazinecarboxylate] | 100 | 90 | 100 | 90 | – | – | – | – | 2.58 | 2.58 | – | – |
| CO/N=C/c1cc(C)c(NC(=O)c2cc(OC(F)F)nn2-c2ncccc2Cl)c(C(=O)NNC(=O)OC)c1 [A-02, Methyl 2-{2-({[1-(3-chloropyridin-2-yl)-3-(difluoromethoxy)-1H-pyrazol-5-yl]carbonyl}amino)-5-[(E)-(methoxyimino)methyl]-3-methylbenzoyl}hydrazinecarboxylate] | 100 | 90 | 100 | 90 | – | – | – | – | 2.28 | 2.38 | – | – |
| CON=Cc1cc(C)c(NC(=O)c2cc(C(F)(F)F)nn2-c2ncccc2Cl)c(C(=O)NNC(=O)OC)c1 [A-04] | 100 | 100 | 100 | – | 2.65 | – | 100 | 100 | – | – | – | – |
| CON=Cc1cc(C)c(NC(=O)c2cc(C(F)(F)F)nn2-c2ncccc2Cl)c(C(=O)NNC(=O)Oc2ccccc2)c1 [A-19] | 100 | – | 100 | 90 | 3.02 | – | 100 | 95 | – | – | – | – |
| CON=Cc1cc(C)c(NC(=O)c2cc(C(F)(F)F)nn2-c2ncccc2Cl)c(C(=O)N(C)NC(=O)Oc2ccccc2)c1 [A-26] | 100 | – | – | 90 | 3.72 | – | – | – | – | – | – | – |
| C#CCOC(=O)NN(C)C(=O)c1cc(C=NOC)cc(C)c1NC(=O)c1cc(C(F)(F)F)nn1-c1ncccc1Cl [A-29] | 100 | 90 | – | 90 | 3.16 | – | 100 | 95 | – | – | – | – |
| CON=Cc1cc(C)c(NC(=O)c2cc(OCC(F)F)nn2-c2ncccc2Cl)c(C(=O)NC(C)C)c1 [C-19] | 100 | 90 | – | – | – | – | 100 | 100 | – | – | 80 | 3.07 |
| CNC(=O)c1cc(C=NOC)cc(C)c1NC(=O)c1cc(OCC(F)F)nn1-c1ncccc1Cl [C-20] | 100 | 90 | 83 | – | – | – | 100 | 100 | – | – | – | 2.57 |
| CON=Cc1cc(C)c(NC(=O)c2cc(C(F)F)nn2-c2ncccc2Cl)c(C(=O)NC2CC2)c1 [C-34] | 100 | 100 | 100 | – | – | – | 100 | 100 | – | – | – | 2.72 |
| COCC(C)NC(=O)c1cc(C=NOC)cc(C)c1NC(=O)c1cc(OC)nn1-c1ncccc1Cl (stereo not drawn) [C-41] | 100 | 100 | – | 90 | – | – | – | – | – | – | – | 2.51 |
| CON=Cc1cc(C)c(NC(=O)c2cc(CF)nn2-c2ncccc2Cl)c(C(=O)NC(C)C2CC2)c1 (stereo not drawn) [C-43] | 100 | 90 | 100 | 90 | – | – | – | – | – | – | – | 2.96 |
| CON=Cc1cc(C)c(NC(=O)c2cc(CF)nn2-c2ncccc2Cl)c(C(=O)NC(C)(C)C)c1 [C-44] | 100 | 100 | 100 | 90 | – | – | – | – | – | – | – | 3.00 |
| CNC(=O)c1cc(C=NOC)cc(C)c1NC(=O)c1cc(CF)nn1-c1ncccc1Cl [C-45] | 100 | 100 | 100 | 100 | – | – | – | – | – | – | – | 2.14 |
| CCNC(=O)c1cc(C=NOC)cc(C)c1NC(=O)c1cc(OCC(F)F)nn1-c1ncccc1Cl [C-46] | 100 | 100 | – | – | – | – | 100 | 100 | – | – | – | 2.81 |
| C#CCNC(=O)c1cc(C=NOC)cc(C)c1NC(=O)c1cc(CF)nn1-c1ncccc1Cl [C-57] | 100 | 90 | 100 | – | – | – | – | – | – | – | – | 2.38 |
| COCCNC(=O)c1cc(C=NOC)cc(C)c1NC(=O)c1cc(C(F)F)nn1-c1ncccc1Cl [C-59] | 100 | 90 | 100 | – | – | – | – | – | – | – | – | 2.53 |
| COCC(C)NC(=O)c1cc(C=NOC)cc(C)c1NC(=O)c1cc(C(F)F)nn1-c1ncccc1Cl (stereo not drawn) [C-60] | 100 | 100 | 100 | – | – | – | – | – | – | – | – | 2.84 |
| C#CCNC(=O)c1cc(C=NOC)cc(C)c1NC(=O)c1cc(C(F)F)nn1-c1ncccc1Cl [C-62] | 100 | 90 | 100 | – | – | – | – | – | – | – | – | 2.69 |
| CCNC(=O)c1cc(C=NOC)cc(C)c1NC(=O)c1cc(C(F)F)nn1-c1ncccc1Cl [C-63] | 100 | 100 | 100 | – | – | – | – | – | – | – | – | 2.71 |
